Assay results from patent EP1247803A2, “Indolinone compounds suitable for modulation of protein kinases” (Sugen, Inc., priority 1996, dated 1998).

Tests used:
[1] = biological target: T1, FLK-1 receptor (Mus musculus, UniProt P35918); test: FLK-1 ELISA (kinase activity of the FLK-1 receptor in FLK-1/NIH3T3 cells, VEGF stimulated); format: cell-based; set-up: concentration or dose not given beside the values
T1 construct: expressed in transfected cells; host or cells: NIH3T3 C7#3
How it was run: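 An ELISA using affinity-purified rabbit anti-FLK-1 antiserum on anti-rabbit IgG-coated plates measured VEGF-stimulated FLK-1 kinase activity. NIH3T3 C7#3 cells carrying FLK-1 were serum-starved (0.1% FBS) overnight, then exposed to compound (final 1:200 dilution, 0.5% DMSO) for two hours at 37 °C.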

[2] = biological target: PDGF-R (Homo sapiens, UniProt P09619); test: PDGF-R ELISA; format: cell-based
Source text: A PDGF-R ELISA is described in International Patent Publication No. WO 96/40116, published December 19, 1996 by Tang et al.

[3] = system: MET; test: MET biochemical kinase assay; set-up: species or system human; concentration or dose not given beside the values
How it was run: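 Colorimetric signal from an HRP-linked anti-phosphotyrosine antibody with TMB measures phosphate incorporated into immobilised MET. The receptor is pulled from lysates by a polyclonal antibody against its cytoplasmic domain, then reacts in ATP- and metal-containing buffer with test compound.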

PDGF-R, sequence (P09619 33-1106, species assumed): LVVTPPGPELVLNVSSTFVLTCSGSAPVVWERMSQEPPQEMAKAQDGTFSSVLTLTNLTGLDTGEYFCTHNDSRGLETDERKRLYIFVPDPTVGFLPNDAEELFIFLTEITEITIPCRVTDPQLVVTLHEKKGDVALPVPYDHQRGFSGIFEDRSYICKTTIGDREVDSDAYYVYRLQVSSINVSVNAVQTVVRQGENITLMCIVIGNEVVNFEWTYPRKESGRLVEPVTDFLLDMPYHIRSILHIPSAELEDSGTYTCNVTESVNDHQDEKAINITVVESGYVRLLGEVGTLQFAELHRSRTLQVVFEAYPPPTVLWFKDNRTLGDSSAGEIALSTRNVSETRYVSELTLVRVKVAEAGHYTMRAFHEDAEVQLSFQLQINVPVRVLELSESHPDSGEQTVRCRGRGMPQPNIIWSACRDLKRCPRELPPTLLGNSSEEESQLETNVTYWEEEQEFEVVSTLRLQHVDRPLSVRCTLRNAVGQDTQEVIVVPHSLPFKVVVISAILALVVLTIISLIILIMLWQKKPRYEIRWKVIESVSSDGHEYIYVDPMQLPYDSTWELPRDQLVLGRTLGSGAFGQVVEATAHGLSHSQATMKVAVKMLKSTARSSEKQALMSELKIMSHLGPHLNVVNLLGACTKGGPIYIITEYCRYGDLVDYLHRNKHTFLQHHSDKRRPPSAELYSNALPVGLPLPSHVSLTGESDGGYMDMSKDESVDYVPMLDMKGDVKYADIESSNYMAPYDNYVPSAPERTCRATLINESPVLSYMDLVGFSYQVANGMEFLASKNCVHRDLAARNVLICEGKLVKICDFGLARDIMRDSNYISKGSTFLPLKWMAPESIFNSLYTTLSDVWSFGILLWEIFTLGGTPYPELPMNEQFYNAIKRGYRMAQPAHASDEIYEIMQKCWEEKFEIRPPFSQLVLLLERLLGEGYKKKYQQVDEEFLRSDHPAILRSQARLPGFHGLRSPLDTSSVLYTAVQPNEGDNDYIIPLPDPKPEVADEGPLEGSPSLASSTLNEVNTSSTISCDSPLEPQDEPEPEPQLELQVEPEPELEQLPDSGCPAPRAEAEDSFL
T1 sequence (P35918 20-1345): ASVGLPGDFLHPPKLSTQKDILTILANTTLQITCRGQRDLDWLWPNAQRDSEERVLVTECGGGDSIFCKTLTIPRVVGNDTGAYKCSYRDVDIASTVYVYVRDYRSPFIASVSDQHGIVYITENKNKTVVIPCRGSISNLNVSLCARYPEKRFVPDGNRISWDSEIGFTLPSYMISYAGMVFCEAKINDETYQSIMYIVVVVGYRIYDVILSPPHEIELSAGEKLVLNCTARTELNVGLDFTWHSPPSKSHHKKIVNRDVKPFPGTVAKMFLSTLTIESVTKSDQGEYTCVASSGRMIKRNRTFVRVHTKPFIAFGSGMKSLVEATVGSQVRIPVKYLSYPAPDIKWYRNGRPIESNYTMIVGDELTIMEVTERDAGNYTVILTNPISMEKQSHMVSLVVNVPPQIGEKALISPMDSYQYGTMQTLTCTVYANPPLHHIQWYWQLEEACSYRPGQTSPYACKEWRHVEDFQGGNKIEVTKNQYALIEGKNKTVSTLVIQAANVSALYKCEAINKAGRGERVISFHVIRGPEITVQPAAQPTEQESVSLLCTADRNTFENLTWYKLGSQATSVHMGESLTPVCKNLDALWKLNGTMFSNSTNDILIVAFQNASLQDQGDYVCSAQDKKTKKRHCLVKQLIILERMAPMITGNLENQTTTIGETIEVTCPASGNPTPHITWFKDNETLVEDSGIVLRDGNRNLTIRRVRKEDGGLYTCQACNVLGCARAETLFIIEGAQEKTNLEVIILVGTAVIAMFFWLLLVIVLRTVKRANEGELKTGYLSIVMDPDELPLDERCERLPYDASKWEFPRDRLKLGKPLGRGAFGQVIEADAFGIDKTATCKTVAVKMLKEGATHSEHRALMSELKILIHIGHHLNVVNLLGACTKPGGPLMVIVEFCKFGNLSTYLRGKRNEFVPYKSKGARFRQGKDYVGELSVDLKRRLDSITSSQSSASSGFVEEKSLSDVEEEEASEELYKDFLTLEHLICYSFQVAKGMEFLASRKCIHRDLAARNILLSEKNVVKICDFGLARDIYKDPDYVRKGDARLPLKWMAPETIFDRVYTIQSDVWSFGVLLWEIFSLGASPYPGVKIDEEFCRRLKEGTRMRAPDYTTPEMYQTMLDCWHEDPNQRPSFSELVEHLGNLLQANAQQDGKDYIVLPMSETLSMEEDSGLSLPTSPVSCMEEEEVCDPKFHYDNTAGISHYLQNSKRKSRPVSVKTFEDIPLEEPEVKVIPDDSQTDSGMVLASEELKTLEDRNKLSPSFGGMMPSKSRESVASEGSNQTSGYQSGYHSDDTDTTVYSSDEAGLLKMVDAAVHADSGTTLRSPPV

N#Cc1ccc(C=C2C(=O)Nc3c(Br)cc(Br)cc32)cc1 [10727/A09]
Fik Kinase %Inhibition [1]: -16.8%
PDGF Kinase %Inhibition [2]: 16.6%
Met Kinase % Inhibition [3]: 44.2%

N#Cc1cccc(C=C2C(=O)Nc3c(Br)cc(Br)cc32)c1 [10727/A08]
Fik Kinase %Inhibition [1]: -0.6%
PDGF Kinase %Inhibition [2]: 15.2%
Met Kinase % Inhibition [3]: 9.7%

O=C1Nc2ccccc2C1=C1C(=O)Nc2ccc(CCCl)cc21 [10726/G09]
Fik Kinase %Inhibition [1]: 3.6%
PDGF Kinase %Inhibition [2]: 13.2%
Met Kinase % Inhibition [3]: 42.4%

Cc1c(Br)ccc2c1C(=Cc1cc3c(cc1Cl)OCO3)C(=O)N2 [10727/C06]
Fik Kinase %Inhibition [1]: 5.2%
PDGF Kinase %Inhibition [2]: 12.3%
Met Kinase % Inhibition [3]: 45.2%

O=C1Nc2ccc(I)cc2C1=Cc1cc(Cl)cc(Br)c1O [10727/B04]
Fik Kinase %Inhibition [1]: 46.0%
PDGF Kinase %Inhibition [2]: 21.0%
Met Kinase % Inhibition [3]: 87.1%

CCc1ccc(C=C2C(=O)Nc3ccc(CCCl)cc32)s1 [10726/G10]
Fik Kinase %Inhibition [1]: 10.5%
PDGF Kinase %Inhibition [2]: -7.0%
Met Kinase % Inhibition [3]: 26.8%

CCc1ccc(C=C2C(=O)Nc3ccc(Br)c(C)c32)s1 [10726/C10]
Fik Kinase %Inhibition [1]: 5.5%
PDGF Kinase %Inhibition [2]: 16.4%
Met Kinase % Inhibition [3]: 36.7%

CCc1cc(CC)c(C=C2C(=O)Nc3ccc(I)cc32)[nH]1 [10727/B03]
Fik Kinase %Inhibition [1]: -13.4%
PDGF Kinase %Inhibition [2]: -7.4%
Met Kinase % Inhibition [3]: 84.5%

Cc1cn(C)cc1C=C1C(=O)Nc2ccc(S(=O)(=O)N3CCOCC3)cc21 [10726/F06]
Fik Kinase %Inhibition [1]: 17.7%
PDGF Kinase %Inhibition [2]: 17.0%
Met Kinase % Inhibition [3]: 16.2%

Cc1c(Br)ccc2c1C(=Cc1cc(O)ccc1O)C(=O)N2 [10727/C10]
Fik Kinase %Inhibition [1]: -35.3%
PDGF Kinase %Inhibition [2]: 45.7%
Met Kinase % Inhibition [3]: 94.4%
